Source: patent US20250115591A1, “NOVEL SULFONAMIDE CARBOXAMIDE COMPOUNDS” (INFLAZOME LIMITED, priority 2017, published 2025)
Counter-ions that a name gives are not always drawn.

Experiments:
[1] = target: T1, NLRP3 (Homo sapiens (Human), UniProt Q96P20); test: THP-1 cells pyroptosis assay (LPS + nigericin, resazurin read-out); type: cell-based; conditions: 1 μg/ml LPS, 5 μM nigericin
How it was run: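 LPS-primed (1 μg/ml) human THP-1 cells in serum-free RPMI were exposed to compound (8-point half-log series, top dose as printed "10M") for 3 h at 37 °C, then to nigericin 5 μM for 1 h. Remaining viability was read by resazurin (100 μM, 1-2 h) fluorescence, and IC50 came from 4-parameter variable-slope regression.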

[2] = target: T1, NLRP3; test: Human whole blood IL1β release assay (LPS + nigericin); type: cell-based; conditions: human whole blood, 1 μg/ml LPS, nigericin, IL-1β release; read-out: HWB IC50
Procedure: For systemic delivery, the ability to inhibit NLRP3 when the compounds are present within the bloodstream is of great importance. For this reason, the NLRP3 inhibitory activity of a number of compounds in human whole blood was investigated in accordance with the following protocol.
Human whole blood in Li-heparin tubes was obtained from healthy donors from a volunteer donor panel. • 1. Plate out 80 μl of whole blood containing 1 μg/ml of LPS in 96-well, clear bottom cell culture plate (Corning #3585) • 2. Add 10 μl compound (8 points half-log dilution with 10 μM top dose) or vehicle (DMSO 0.1% FAC) to the appropriate wells • 3. Incubate for 3 hrs at 37° C., 5% CO2 • 4. Add 10 μl nigericin (Sigma #N7143) ([…]) to all wells • 5. Incubate for 1 hr at 37° C., 5% CO2 • 6. At the end of the incubation period, spin plates at 30×g for 5 mins to pellet cells and remove 20 μl of supernatant and add to 96-well v-bottom plates for IL-1β analysis (note: these plates containing the supernatants can be stored at −80° C. to be analysed at a later date) • 7. IL-1β was measured according to the manufacturer protocol (Perkin Elmer-AlphaLisa IL-Kit A[220F-5000) • 8. IC50 data is fitted to a non-linear regression equation (log inhibitor vs response-variable slope 4-parameters)

T1 sequence (Q96P20 whole entry): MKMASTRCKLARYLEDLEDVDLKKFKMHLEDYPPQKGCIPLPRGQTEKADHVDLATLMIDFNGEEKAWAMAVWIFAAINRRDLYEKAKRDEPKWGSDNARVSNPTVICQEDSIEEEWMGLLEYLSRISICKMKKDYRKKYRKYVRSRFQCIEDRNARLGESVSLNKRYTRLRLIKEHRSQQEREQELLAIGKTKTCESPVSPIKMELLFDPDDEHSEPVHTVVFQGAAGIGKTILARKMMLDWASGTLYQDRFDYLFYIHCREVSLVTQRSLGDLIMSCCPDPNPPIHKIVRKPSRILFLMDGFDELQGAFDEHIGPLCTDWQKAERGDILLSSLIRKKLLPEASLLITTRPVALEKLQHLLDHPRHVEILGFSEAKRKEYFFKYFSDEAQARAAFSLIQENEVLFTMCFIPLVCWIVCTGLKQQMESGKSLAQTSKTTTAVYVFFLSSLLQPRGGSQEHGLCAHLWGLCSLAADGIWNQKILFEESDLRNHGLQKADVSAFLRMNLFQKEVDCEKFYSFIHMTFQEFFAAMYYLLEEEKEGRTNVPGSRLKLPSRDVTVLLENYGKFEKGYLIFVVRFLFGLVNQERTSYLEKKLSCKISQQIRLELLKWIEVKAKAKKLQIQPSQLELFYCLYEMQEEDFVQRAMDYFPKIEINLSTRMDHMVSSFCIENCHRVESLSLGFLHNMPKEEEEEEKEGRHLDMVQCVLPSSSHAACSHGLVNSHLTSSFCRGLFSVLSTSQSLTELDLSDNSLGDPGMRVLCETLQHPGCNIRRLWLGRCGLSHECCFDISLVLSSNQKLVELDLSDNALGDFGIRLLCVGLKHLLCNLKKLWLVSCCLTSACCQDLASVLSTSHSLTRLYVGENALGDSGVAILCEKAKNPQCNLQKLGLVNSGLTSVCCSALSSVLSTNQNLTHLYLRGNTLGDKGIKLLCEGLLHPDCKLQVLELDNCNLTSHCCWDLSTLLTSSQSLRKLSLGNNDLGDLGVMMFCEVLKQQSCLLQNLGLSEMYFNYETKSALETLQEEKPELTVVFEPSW

Row | SMILES | IC50 [1] [nM] | IC50 [2] [nM]
1 | CCN1CC(N2CCC(S(=O)(=O)NC(=O)Nc3c4c(cc5c3CCC5)CCC4)CC2)C1 [Example 24, 1-(1-Ethylazetidin-3-yl)-N-((1,2,3,5,6,7-hexahydro-s-indacen-4-yl)carbamoyl)piperidine-4-sulfonamide, potassium salt] | < 1000 | < 1000
2 | CCC(=O)N1CCCC(S(=O)(=O)NC(=O)Nc2c3c(cc4c2CCC4)CCC3)C1 (centres unmarked) [Example 32, N-((1,2,3,5,6,7-Hexahydro-s-indacen-4-yl)carbamoyl)-1-propionylpiperidine-3-sulfonamide, potassium salt] | 1000 to 10000 | 1000 to 10000
3 | O=C(Nc1c2c(cc3c1CCC3)CCC2)NS(=O)(=O)C1CCCN(CCF)C1 (centres unmarked) [Example 34, 1-(2-Fluoroethyl)-N-((1,2,3,5,6,7-hexahydro-s-indacen-4-yl)carbamoyl)piperidine-3-sulfonamide, potassium salt] | < 1000 | 1000 to 10000
4 | O=C(Nc1c2c(cc3c1CCC3)CCC2)NS(=O)(=O)C1CNc2ccccc2C1 (centres unmarked) [Example 35, N-((1,2,3,5,6,7-Hexahydro-s-indacen-4-yl)carbamoyl)-1,2,3,4-tetrahydroquinoline-3-sulfonamide, potassium salt] | < 1000 | > 10000
5 | O=C(Nc1c2c(cc3c1CCC3)CCC2)NS(=O)(=O)C1CCN(C2CC2)C1 (centres unmarked) [Example 39, 1-Cyclopropyl-N-((1,2,3,5,6,7-hexahydro-s-indacen-4-yl)carbamoyl)pyrrolidine-3-sulfonamide, potassium salt] | < 1000 | 1000 to 10000
6 | CN1CC(S(=O)(=O)NC(=O)Nc2c3c(cc4c2CCC4)CCC3)C1 [Example 49, N-((1,2,3,5,6,7-Hexahydro-s-indacen-4-yl)carbamoyl)-1-methylazetidine-3-sulfonamide, potassium salt] | < 1000 | < 1000
7 | CCN1CC(S(=O)(=O)NC(=O)Nc2c3c(cc4c2CCC4)CCC3)C1 [Example 53, 1-Ethyl-N-((1,2,3,5,6,7-hexahydro-s-indacen-4-yl)carbamoyl) azetidine-3-sulfonamide, potassium salt] | < 1000 | < 1000
8 | CCC(CC)N1CC(S(=O)(=O)NC(=O)Nc2c3c(cc4c2CCC4)CCC3)C1 [Example 65, N-((1,2,3,5,6,7-Hexahydro-s-indacen-4-yl)carbamoyl)-1-(pentan-3-yl)azetidine-3-sulfonamide, potassium salt] | < 1000 | < 1000
9 | O=C(Nc1c2c(cc3c1CCC3)CCC2)NS(=O)(=O)C1CN(C(=O)OCc2ccccc2)C1 [Example 71, Benzyl 3-(N-((1,2,3,5,6,7-hexahydro-s-indacen-4-yl)carbamoyl)sulfamoyl)azetidine-1-carboxylate, potassium salt] | < 1000 | > 10000
10 | O=C(Nc1c2c(cc3c1CCC3)CCC2)NS(=O)(=O)C1CN(C2CCOCC2)C1 [Example 75, N-((1,2,3,5,6,7-Hexahydro-s-indacen-4-yl)carbamoyl)-1-(tetrahydro-2H-pyran-4-yl)azetidine-3-sulfonamide, potassium salt] | < 1000 | < 1000
11 | O=C(Nc1c2c(cc3c1CCC3)CCC2)NS(=O)(=O)C1CN(Cc2cccnc2)C1 [Example 90, N-((1,2,3,5,6,7-Hexahydro-s-indacen-4-yl)carbamoyl)-1-(pyridin-3-ylmethyl)azetidine-3-sulfonamide, potassium salt] | < 1000 | < 1000
12 | O=C(Nc1c2c(cc3c1CCC3)CCC2)NS(=O)(=O)C1CN(CC(F)(F)F)C1 [Example 96, N-((1,2,3,5,6,7-Hexahydro-s-indacen-4-yl)carbamoyl)-1-(2,2,2-trifluoroethyl)azetidine-3-sulfonamide, potassium salt] | < 1000 | 1000 to 10000
13 | CC(C)CN1CC(S(=O)(=O)NC(=O)Nc2c3c(cc4c2CCC4)CCC3)C1 [Example 97, N-((1,2,3,5,6,7-Hexahydro-s-indacen-4-yl)carbamoyl)-1-isobutylazetidine-3-sulfonamide, potassium salt] | < 1000 | < 1000
14 | O=C(Nc1c2c(cc3c1CCC3)CCC2)NS(=O)(=O)C1CN(CC2COC2)C1 [Example 101, N-((1,2,3,5,6,7-Hexahydro-s-indacen-4-yl)carbamoyl)-1-(oxetan-3-ylmethyl)azetidine-3-sulfonamide, potassium salt] | < 1000 | < 1000
15 | O=C(Nc1c2c(cc3c1CCC3)CCC2)NS(=O)(=O)C1CN(Cc2ccncc2)C1 [Example 103, N-((1,2,3,5,6,7-Hexahydro-s-indacen-4-yl)carbamoyl)-1-(pyridin-4-ylmethyl)azetidine-3-sulfonamide, potassium salt] | < 1000 | 1000 to 10000
16 | O=C(Nc1c2c(cc3c1CCC3)CCC2)NS(=O)(=O)C1CN(Cc2cccnc2Br)C1 [Example 105, 1-((2-Bromopyridin-3-yl)methyl)-N-((1,2,3,5,6,7-hexahydro-s-indacen-4-yl)carbamoyl)azetidine-3-sulfonamide, potassium salt] | < 1000 | > 10000
17 | O=C(Nc1c2c(cc3c1CCC3)CCC2)NS(=O)(=O)C1CN(CCF)C1 [Example 108, 1-(2-Fluoroethyl)-N-((1,2,3,5,6,7-hexahydro-s-indacen-4-yl)carbamoyl)azetidine-3-sulfonamide, potassium salt] | < 1000 | < 1000
18 | O=C(Nc1c2c(cc3c1CCC3)CCC2)NS(=O)(=O)C1CN(C2CCOC2)C1 (centres unmarked) [Example 121, N-((1,2,3,5,6,7-Hexahydro-s-indacen-4-yl)carbamoyl)-1-(tetrahydrofuran-3-yl)azetidine-3-sulfonamide, potassium salt] | < 1000 | < 1000
19 | CCC(C)N1CC(S(=O)(=O)NC(=O)Nc2c3c(cc4c2CCC4)CCC3)C1 (centres unmarked) [Example 122, 1-(sec-Butyl)-N-((1,2,3,5,6,7-hexahydro-s-indacen-4-yl)carbamoyl)azetidine-3-sulfonamide, potassium salt] | < 1000 | < 1000
20 | CC1(C)CCC1N1CC(S(=O)(=O)NC(=O)Nc2c3c(cc4c2CCC4)CCC3)C1 (centres unmarked) [Example 124, 1-(2,2-Dimethylcyclobutyl)-N-((1,2,3,5,6,7-hexahydro-s-indacen-4-yl)carbamoyl)azetidine-3-sulfonamide, potassium salt] | < 1000 | 1000 to 10000
21 | O=C(Nc1c2c(cc3c1CCC3)CCC2)NS(=O)(=O)C1CN(CC2CCC2)C1 [Example 126, 1-(Cyclobutylmethyl)-N-((1,2,3,5,6,7-hexahydro-s-indacen-4-yl)carbamoyl)azetidine-3-sulfonamide, potassium salt] | 1000 to 10000 | 1000 to 10000
22 | CC(CO)N1CC(S(=O)(=O)NC(=O)Nc2c3c(cc4c2CCC4)CCC3)C1 (centres unmarked) [Example 130, N-((1,2,3,5,6,7-Hexahydro-s-indacen-4-yl)carbamoyl)-1-(1-hydroxypropan-2-yl)azetidine-3-sulfonamide, potassium salt] | < 1000 | < 1000
23 | CC(C(F)F)N1CC(S(=O)(=O)NC(=O)Nc2c3c(cc4c2CCC4)CCC3)C1 (centres unmarked) [Example 131, 1-(1,1-Difluoropropan-2-yl)-N-((1,2,3,5,6,7-hexahydro-s-indacen-4-yl)carbamoyl)azetidine-3-sulfonamide, potassium salt] | < 1000 | 1000 to 10000
24 | C#CCN1CC(S(=O)(=O)NC(=O)Nc2c3c(cc4c2CCC4)CCC3)C1 [Example 133, N-((1,2,3,5,6,7-Hexahydro-s-indacen-4-yl)carbamoyl)-1-(prop-2-yn-1-yl)azetidine-3-sulfonamide, potassium salt] | < 1000 | < 1000
25 | O=C(Nc1c2c(cc3c1CCC3)CCC2)NS(=O)(=O)C1CN(CCCO)C1 [Example 134, N-((1,2,3,5,6,7-Hexahydro-s-indacen-4-yl)carbamoyl)-1-(3-hydroxypropyl)azetidine-3-sulfonamide, potassium salt] | < 1000 | 1000 to 10000
26 | CC(C)(C)CN1CC(S(=O)(=O)NC(=O)Nc2c3c(cc4c2CCC4)CCC3)C1 [Example 135, N-((1,2,3,5,6,7-Hexahydro-s-indacen-4-yl)carbamoyl)-1-neopentylazetidine-3-sulfonamide, potassium salt] | < 1000 | 1000 to 10000
27 | CC(O)CN1CC(S(=O)(=O)NC(=O)Nc2c3c(cc4c2CCC4)CCC3)C1 (centres unmarked) [Example 137, N-((1,2,3,5,6,7-Hexahydro-s-indacen-4-yl)carbamoyl)-1-(2-hydroxypropyl)azetidine-3-sulfonamide, potassium salt] | < 1000 | 1000 to 10000
28 | O=C(Nc1c2c(cc3c1CCC3)CCC2)NS(=O)(=O)C1CN(CCCCO)C1 [Example 138, N-((1,2,3,5,6,7-Hexahydro-s-indacen-4-yl)carbamoyl)-1-(4-hydroxybutyl)azetidine-3-sulfonamide, potassium salt] | < 1000 | < 1000
